# From the supplement of paper PMC10307832
# How the values were obtained:
# Test in all cases: relative viability (nuclei count vs DMSO), 5 days (fraction); higher = more cells survive
# CAP-232 + Pemetrexed = compound: C[C@H]([C@@H](C(=O)N)NC(=O)[C@@H]1CSSC[C@@H](C(=O)N[C@H](C(=O)N[C@@H](C(=O)N[C@H](C(=O)N1)CCCCN)CC2=CNC3=CC=CC=C32)CC4=CC=C(C=C4)O)NC(=O)[C@@H](CC5=CC=CC=C5)N)O [CAP-232] + Nc1nc2[nH]cc(CCc3ccc(C(=O)N[C@@H](CCC(=O)O)C(=O)O)cc3)c2c(=O)[nH]1 [Pemetrexed] (partner 0.2 µM)
# In short: (§1)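 Each reported value is a median over duplicate plates. It expresses relative viability: treated-well nuclei count divided by vehicle-well nuclei count. Lung cancer cell lines in 1536-well plates were dosed by pin tool a day after seeding, alone with one drug or with a fixed anchor-drug dose plus five library-drug doses (not always all listed) in √10 steps, and nuclei were counted after 5 days.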
# CAP-232 + Palbociclib = compound: C[C@H]([C@@H](C(=O)N)NC(=O)[C@@H]1CSSC[C@@H](C(=O)N[C@H](C(=O)N[C@@H](C(=O)N[C@H](C(=O)N1)CCCCN)CC2=CNC3=CC=CC=C32)CC4=CC=C(C=C4)O)NC(=O)[C@@H](CC5=CC=CC=C5)N)O [CAP-232] + CC(=O)c1c(C)c2cnc(Nc3ccc(N4CCNCC4)cn3)nc2n(C2CCCC2)c1=O [Palbociclib] (partner 0.5 µM)
# In short: as §1
# CAP-232 + Pictilisib = compound: C[C@H]([C@@H](C(=O)N)NC(=O)[C@@H]1CSSC[C@@H](C(=O)N[C@H](C(=O)N[C@@H](C(=O)N[C@H](C(=O)N1)CCCCN)CC2=CNC3=CC=CC=C32)CC4=CC=C(C=C4)O)NC(=O)[C@@H](CC5=CC=CC=C5)N)O [CAP-232] + CS(=O)(=O)N1CCN(Cc2cc3nc(-c4cccc5[nH]ncc45)nc(N4CCOCC4)c3s2)CC1 [Pictilisib] (partner 1 µM)
# In short: as §1
# CAP-232 + Bortezomib = compound: C[C@H]([C@@H](C(=O)N)NC(=O)[C@@H]1CSSC[C@@H](C(=O)N[C@H](C(=O)N[C@@H](C(=O)N[C@H](C(=O)N1)CCCCN)CC2=CNC3=CC=CC=C32)CC4=CC=C(C=C4)O)NC(=O)[C@@H](CC5=CC=CC=C5)N)O [CAP-232] + CC(C)C[C@H](NC(=O)[C@H](Cc1ccccc1)NC(=O)c1cnccn1)B(O)O [Bortezomib] (partner 0.002 µM)
# In short: as §1
# CAP-232 + Lapatinib = compound: C[C@H]([C@@H](C(=O)N)NC(=O)[C@@H]1CSSC[C@@H](C(=O)N[C@H](C(=O)N[C@@H](C(=O)N[C@H](C(=O)N1)CCCCN)CC2=CNC3=CC=CC=C32)CC4=CC=C(C=C4)O)NC(=O)[C@@H](CC5=CC=CC=C5)N)O [CAP-232] + CS(=O)(=O)CCNCc1ccc(-c2ccc3ncnc(Nc4ccc(OCc5cccc(F)c5)c(Cl)c4)c3c2)o1 [Lapatinib] (partner 2 µM)
# In short: as §1
cell line,measurement,setting,value
NCI-H3122,relative viability,CAP-232 + Pemetrexed; first compound 0.4 µM,0.2
same,relative viability,CAP-232 + Pemetrexed; first compound 1.265 µM,0.226
same,relative viability,CAP-232 + Pemetrexed; first compound 4 µM,0.201
same,relative viability,CAP-232 + Pemetrexed; first compound 12.65 µM,0.194
same,relative viability,CAP-232 + Palbociclib; first compound 0.4 µM,0.178
same,relative viability,CAP-232 + Palbociclib; first compound 1.265 µM,0.181
same,relative viability,CAP-232 + Palbociclib; first compound 4 µM,0.187
same,relative viability,CAP-232 + Palbociclib; first compound 12.65 µM,0.214
same,relative viability,CAP-232 + Pictilisib; first compound 0.4 µM,0.399
same,relative viability,CAP-232 + Pictilisib; first compound 1.265 µM,0.573
same,relative viability,CAP-232 + Pictilisib; first compound 4 µM,0.568
same,relative viability,CAP-232 + Pictilisib; first compound 12.65 µM,0.566
same,relative viability,CAP-232 + Bortezomib; first compound 0.4 µM,1.01
same,relative viability,CAP-232 + Bortezomib; first compound 1.265 µM,1.05
same,relative viability,CAP-232 + Bortezomib; first compound 4 µM,0.896
same,relative viability,CAP-232 + Bortezomib; first compound 12.65 µM,1
same,relative viability,CAP-232 + Lapatinib; first compound 0.4 µM,1
same,relative viability,CAP-232 + Lapatinib; first compound 1.265 µM,1.09
same,relative viability,CAP-232 + Lapatinib; first compound 4 µM,1
same,relative viability,CAP-232 + Lapatinib; first compound 12.65 µM,1.05
PC-3 [JPC-3],relative viability,CAP-232 + Pemetrexed; first compound 0.4 µM,1.63
same,relative viability,CAP-232 + Pemetrexed; first compound 1.265 µM,1.05
same,relative viability,CAP-232 + Pemetrexed; first compound 4 µM,0.992
same,relative viability,CAP-232 + Pemetrexed; first compound 12.65 µM,0.888
same,relative viability,CAP-232 + Palbociclib; first compound 0.4 µM,0.583
same,relative viability,CAP-232 + Palbociclib; first compound 1.265 µM,0.542
same,relative viability,CAP-232 + Palbociclib; first compound 4 µM,0.545
same,relative viability,CAP-232 + Palbociclib; first compound 12.65 µM,0.555
same,relative viability,CAP-232 + Pictilisib; first compound 0.4 µM,0.798
same,relative viability,CAP-232 + Pictilisib; first compound 1.265 µM,0.741
same,relative viability,CAP-232 + Pictilisib; first compound 4 µM,0.84
same,relative viability,CAP-232 + Pictilisib; first compound 12.65 µM,0.763
same,relative viability,CAP-232 + Bortezomib; first compound 0.4 µM,0.939
same,relative viability,CAP-232 + Bortezomib; first compound 1.265 µM,0.855
same,relative viability,CAP-232 + Bortezomib; first compound 4 µM,0.734
same,relative viability,CAP-232 + Bortezomib; first compound 12.65 µM,0.788
same,relative viability,CAP-232 + Lapatinib; first compound 0.4 µM,0.503
same,relative viability,CAP-232 + Lapatinib; first compound 1.265 µM,0.444
same,relative viability,CAP-232 + Lapatinib; first compound 4 µM,0.454
same,relative viability,CAP-232 + Lapatinib; first compound 12.65 µM,0.461
PC-14,relative viability,CAP-232 + Pemetrexed; first compound 0.4 µM,0.121
same,relative viability,CAP-232 + Pemetrexed; first compound 1.265 µM,0.123
same,relative viability,CAP-232 + Pemetrexed; first compound 4 µM,0.137
same,relative viability,CAP-232 + Pemetrexed; first compound 12.65 µM,0.127
same,relative viability,CAP-232 + Palbociclib; first compound 0.4 µM,0.675
same,relative viability,CAP-232 + Palbociclib; first compound 1.265 µM,0.507
same,relative viability,CAP-232 + Palbociclib; first compound 4 µM,0.538
same,relative viability,CAP-232 + Palbociclib; first compound 12.65 µM,0.412
same,relative viability,CAP-232 + Pictilisib; first compound 0.4 µM,0.771
same,relative viability,CAP-232 + Pictilisib; first compound 1.265 µM,0.661
same,relative viability,CAP-232 + Pictilisib; first compound 4 µM,0.734
same,relative viability,CAP-232 + Pictilisib; first compound 12.65 µM,0.656
same,relative viability,CAP-232 + Bortezomib; first compound 0.4 µM,0.931
same,relative viability,CAP-232 + Bortezomib; first compound 1.265 µM,0.817
same,relative viability,CAP-232 + Bortezomib; first compound 4 µM,1.07
same,relative viability,CAP-232 + Bortezomib; first compound 12.65 µM,0.821
same,relative viability,CAP-232 + Lapatinib; first compound 0.4 µM,0.34
same,relative viability,CAP-232 + Lapatinib; first compound 1.265 µM,0.31
same,relative viability,CAP-232 + Lapatinib; first compound 4 µM,0.409
same,relative viability,CAP-232 + Lapatinib; first compound 12.65 µM,0.262
RERF-LC-KJ,relative viability,CAP-232 + Pemetrexed; first compound 0.4 µM,0.499
same,relative viability,CAP-232 + Pemetrexed; first compound 1.265 µM,0.534
same,relative viability,CAP-232 + Pemetrexed; first compound 4 µM,0.441
same,relative viability,CAP-232 + Pemetrexed; first compound 12.65 µM,0.407
same,relative viability,CAP-232 + Palbociclib; first compound 0.4 µM,1.43
same,relative viability,CAP-232 + Palbociclib; first compound 1.265 µM,1.12
same,relative viability,CAP-232 + Palbociclib; first compound 4 µM,0.908
same,relative viability,CAP-232 + Palbociclib; first compound 12.65 µM,0.747
same,relative viability,CAP-232 + Pictilisib; first compound 0.4 µM,0.563
same,relative viability,CAP-232 + Pictilisib; first compound 1.265 µM,0.623
same,relative viability,CAP-232 + Pictilisib; first compound 4 µM,0.538
same,relative viability,CAP-232 + Pictilisib; first compound 12.65 µM,0.42
same,relative viability,CAP-232 + Bortezomib; first compound 0.4 µM,1.16
same,relative viability,CAP-232 + Bortezomib; first compound 1.265 µM,1.15
same,relative viability,CAP-232 + Bortezomib; first compound 4 µM,1.44
same,relative viability,CAP-232 + Bortezomib; first compound 12.65 µM,0.987
same,relative viability,CAP-232 + Lapatinib; first compound 0.4 µM,0.96
same,relative viability,CAP-232 + Lapatinib; first compound 1.265 µM,0.859
same,relative viability,CAP-232 + Lapatinib; first compound 4 µM,1.03
same,relative viability,CAP-232 + Lapatinib; first compound 12.65 µM,0.861
SK-LU-1,relative viability,CAP-232 + Pemetrexed; first compound 0.4 µM,0.916
same,relative viability,CAP-232 + Pemetrexed; first compound 1.265 µM,0.996
same,relative viability,CAP-232 + Pemetrexed; first compound 4 µM,1.03
same,relative viability,CAP-232 + Pemetrexed; first compound 12.65 µM,0.658
same,relative viability,CAP-232 + Palbociclib; first compound 0.4 µM,0.375
same,relative viability,CAP-232 + Palbociclib; first compound 1.265 µM,0.398
same,relative viability,CAP-232 + Palbociclib; first compound 4 µM,0.405
same,relative viability,CAP-232 + Palbociclib; first compound 12.65 µM,0.364
same,relative viability,CAP-232 + Pictilisib; first compound 0.4 µM,0.605
same,relative viability,CAP-232 + Pictilisib; first compound 1.265 µM,0.547
same,relative viability,CAP-232 + Pictilisib; first compound 4 µM,0.651
same,relative viability,CAP-232 + Pictilisib; first compound 12.65 µM,0.462
same,relative viability,CAP-232 + Bortezomib; first compound 0.4 µM,1.53
same,relative viability,CAP-232 + Bortezomib; first compound 1.265 µM,1.04
same,relative viability,CAP-232 + Bortezomib; first compound 4 µM,1.2
same,relative viability,CAP-232 + Bortezomib; first compound 12.65 µM,1.3
same,relative viability,CAP-232 + Lapatinib; first compound 0.4 µM,0.869
same,relative viability,CAP-232 + Lapatinib; first compound 1.265 µM,0.809
same,relative viability,CAP-232 + Lapatinib; first compound 4 µM,0.8
same,relative viability,CAP-232 + Lapatinib; first compound 12.65 µM,0.979
SW 1573,relative viability,CAP-232 + Pemetrexed; first compound 0.4 µM,0.801
same,relative viability,CAP-232 + Pemetrexed; first compound 1.265 µM,0.879
same,relative viability,CAP-232 + Pemetrexed; first compound 4 µM,0.789
same,relative viability,CAP-232 + Pemetrexed; first compound 12.65 µM,0.103
same,relative viability,CAP-232 + Palbociclib; first compound 0.4 µM,0.313
same,relative viability,CAP-232 + Palbociclib; first compound 1.265 µM,0.392
same,relative viability,CAP-232 + Palbociclib; first compound 4 µM,0.406
same,relative viability,CAP-232 + Palbociclib; first compound 12.65 µM,0.201
same,relative viability,CAP-232 + Pictilisib; first compound 0.4 µM,0.437
same,relative viability,CAP-232 + Pictilisib; first compound 1.265 µM,0.587
same,relative viability,CAP-232 + Pictilisib; first compound 4 µM,0.54
same,relative viability,CAP-232 + Pictilisib; first compound 12.65 µM,0.395
same,relative viability,CAP-232 + Bortezomib; first compound 0.4 µM,0.951
same,relative viability,CAP-232 + Bortezomib; first compound 1.265 µM,1.03
same,relative viability,CAP-232 + Bortezomib; first compound 4 µM,0.927
same,relative viability,CAP-232 + Bortezomib; first compound 12.65 µM,0.974
same,relative viability,CAP-232 + Lapatinib; first compound 0.4 µM,1.06
same,relative viability,CAP-232 + Lapatinib; first compound 1.265 µM,1.12
same,relative viability,CAP-232 + Lapatinib; first compound 4 µM,1.21
same,relative viability,CAP-232 + Lapatinib; first compound 12.65 µM,1.13
UMC-11,relative viability,CAP-232 + Pemetrexed; first compound 0.4 µM,0.824
same,relative viability,CAP-232 + Pemetrexed; first compound 1.265 µM,0.843
same,relative viability,CAP-232 + Pemetrexed; first compound 4 µM,0.821
same,relative viability,CAP-232 + Pemetrexed; first compound 12.65 µM,0.613
same,relative viability,CAP-232 + Palbociclib; first compound 0.4 µM,0.346
same,relative viability,CAP-232 + Palbociclib; first compound 1.265 µM,0.349
same,relative viability,CAP-232 + Palbociclib; first compound 4 µM,0.311
same,relative viability,CAP-232 + Palbociclib; first compound 12.65 µM,0.341
same,relative viability,CAP-232 + Pictilisib; first compound 0.4 µM,0.775
same,relative viability,CAP-232 + Pictilisib; first compound 1.265 µM,0.796
same,relative viability,CAP-232 + Pictilisib; first compound 4 µM,1
same,relative viability,CAP-232 + Pictilisib; first compound 12.65 µM,0.876
same,relative viability,CAP-232 + Bortezomib; first compound 0.4 µM,1.11
same,relative viability,CAP-232 + Bortezomib; first compound 1.265 µM,0.719
same,relative viability,CAP-232 + Bortezomib; first compound 4 µM,1.11
same,relative viability,CAP-232 + Bortezomib; first compound 12.65 µM,1.1
same,relative viability,CAP-232 + Lapatinib; first compound 0.4 µM,1.02
same,relative viability,CAP-232 + Lapatinib; first compound 1.265 µM,0.907
same,relative viability,CAP-232 + Lapatinib; first compound 4 µM,1.14
same,relative viability,CAP-232 + Lapatinib; first compound 12.65 µM,1.08
